Several values for one entry are separate records, joined by “and”; a condition that tells them apart may be missing. Identical values can stand only once. Like-named read-outs stand apart in the source and are kept apart here.
How the values were obtained:
[1] = target: T1, CypA (Homo sapiens, UniProt P62937); experiment: Chymotrypsin coupled prolyl-isomerase assay; type: biochemical; settings: for CypA prolyl-isomerase assay raw dose-response value: Fig. 3b source data, replicates
T1 construct: PPIA (UniProtKB Entry P62937: residues 1–165); made in house; host or cells: E. coli BL21(DE3)
T1 sequence (P62937 whole entry, the tested form may be a part): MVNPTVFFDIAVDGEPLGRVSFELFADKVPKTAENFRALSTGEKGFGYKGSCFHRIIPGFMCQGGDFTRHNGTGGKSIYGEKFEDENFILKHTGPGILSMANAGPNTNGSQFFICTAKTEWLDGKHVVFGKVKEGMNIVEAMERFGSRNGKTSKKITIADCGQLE
In short: (§1)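 5 nM Cyp, HEPES pH 7.3/NaCl/Triton buffer, 2–3 °C; cpd 5 min, chymotrypsin 25 µM 5 min, then Suc-AAPF-AMC 5 µM in LiCl/TFE. Kinetic fluorescence 330 s. Per-well rate constants, normalized, IC50 from nonlinear fit.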

[2] = target: T2, CypC (Homo sapiens, UniProt P45877); experiment: Chymotrypsin coupled prolyl-isomerase assay; type: biochemical; settings: for CypC prolyl-isomerase assay raw dose-response value: Fig. 3b source data, replicates
T2 construct: PPIC (UniProtKB Entry P45877: residues 24–212); host or cells: E. coli BL21(DE3)
T2 sequence (P45877 24-212): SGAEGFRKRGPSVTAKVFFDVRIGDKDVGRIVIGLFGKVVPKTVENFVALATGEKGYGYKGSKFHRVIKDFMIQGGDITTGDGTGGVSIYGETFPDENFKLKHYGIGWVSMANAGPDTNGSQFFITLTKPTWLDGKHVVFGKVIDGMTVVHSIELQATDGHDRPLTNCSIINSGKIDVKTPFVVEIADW
In short: as §1

[3] = target: T3, CypE (Homo sapiens, UniProt Q9UNP9); experiment: Chymotrypsin coupled prolyl-isomerase assay; type: biochemical; settings: for CypE prolyl-isomerase assay raw dose-response value: Fig. 3b source data, replicates
T3 construct: PPIE (UniProtKB Entry Q9UNP9: residues 131–301); host or cells: E. coli BL21(DE3)
T3 sequence (Q9UNP9 131-301): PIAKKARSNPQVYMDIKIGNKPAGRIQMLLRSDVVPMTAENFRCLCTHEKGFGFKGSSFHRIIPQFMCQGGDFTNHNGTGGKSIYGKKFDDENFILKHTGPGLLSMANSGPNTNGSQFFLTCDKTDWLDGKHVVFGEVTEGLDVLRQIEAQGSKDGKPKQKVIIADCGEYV
In short: as §1

[4] = target: T4, CypG (Homo sapiens, UniProt Q13427); experiment: Chymotrypsin coupled prolyl-isomerase assay; type: biochemical; settings: for CypG prolyl-isomerase assay raw dose-response value: Fig. 3b source data, replicates
T4 construct: PPIG (UniProtKB Entry Q13427: residues 1–179); His6 with thrombin site (pET28a LIC leader) (N); host or cells: E. coli BL21(DE3)
T4 sequence (Q13427 1-179): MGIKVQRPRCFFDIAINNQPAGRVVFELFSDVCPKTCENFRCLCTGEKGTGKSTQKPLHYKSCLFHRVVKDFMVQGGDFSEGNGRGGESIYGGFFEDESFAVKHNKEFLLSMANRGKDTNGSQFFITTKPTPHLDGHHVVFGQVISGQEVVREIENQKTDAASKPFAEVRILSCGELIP
In short: as §1

[5] = target: T5, CypH (Homo sapiens, UniProt O43447); experiment: Chymotrypsin coupled prolyl-isomerase assay; type: biochemical; settings: for CypH prolyl-isomerase assay raw dose-response value: Fig. 3b source data, replicates
T5 construct: PPIH (UniProtKB Entry O43447: residues 1–177); His6 with TEV site (2BT vector leader) (N); made in house; host or cells: E. coli BL21(DE3)
T5 sequence (O43447 whole entry, the tested form may be a part): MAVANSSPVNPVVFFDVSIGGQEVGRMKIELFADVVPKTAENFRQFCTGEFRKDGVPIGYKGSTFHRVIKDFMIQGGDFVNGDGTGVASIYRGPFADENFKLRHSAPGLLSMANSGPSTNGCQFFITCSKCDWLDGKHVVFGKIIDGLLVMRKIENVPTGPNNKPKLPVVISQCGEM
In short: as §1

[6] = target: T6, CypB (Homo sapiens, UniProt P23284); experiment: biochemical; settings: for CypB prolyl-isomerase assay raw dose-response value: Fig. 3b source data, replicates
T6 construct: PPIB (UniProtKB Entry P23284: residues 34–216); His6 with TEV site (2BT vector leader) (N); made in house; host or cells: E. coli BL21(DE3)
T6 sequence (P23284 34-216): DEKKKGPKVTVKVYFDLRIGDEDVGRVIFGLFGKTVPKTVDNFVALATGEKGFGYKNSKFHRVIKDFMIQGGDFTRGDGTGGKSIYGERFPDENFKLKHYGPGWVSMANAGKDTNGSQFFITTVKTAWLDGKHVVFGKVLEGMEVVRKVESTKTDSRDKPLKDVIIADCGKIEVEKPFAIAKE
In short: as §1

[7] = target: Cyp40 (Homo sapiens, UniProt Q08752); experiment: Chymotrypsin coupled prolyl-isomerase assay; settings: for Cyp40 prolyl-isomerase assay raw dose-response value: Fig. 3b source data, replicates
Chain of Cyp40 (Q08752 1-183): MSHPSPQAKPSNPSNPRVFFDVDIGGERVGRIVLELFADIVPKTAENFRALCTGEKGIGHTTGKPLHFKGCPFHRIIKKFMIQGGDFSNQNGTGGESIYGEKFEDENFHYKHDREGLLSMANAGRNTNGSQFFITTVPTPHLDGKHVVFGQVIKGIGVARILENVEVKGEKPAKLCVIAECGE
In short: as §1

[8] = target: T7, NKTR (Homo sapiens, UniProt P30414); experiment: Chymotrypsin coupled prolyl-isomerase assay; type: biochemical; settings: for NKTR prolyl-isomerase assay raw dose-response value: Fig. 3b source data, replicates
T7 construct: NKTR (UniProtKB Entry P30414: residues 7–179); host or cells: E. coli BL21(DE3)
T7 sequence (P30414 7-179): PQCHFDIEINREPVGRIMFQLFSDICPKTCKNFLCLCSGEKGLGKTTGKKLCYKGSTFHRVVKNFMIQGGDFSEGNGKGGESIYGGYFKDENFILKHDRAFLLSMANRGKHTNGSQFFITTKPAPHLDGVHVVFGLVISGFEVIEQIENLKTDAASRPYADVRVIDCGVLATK

Structure (SMILES): NCCOCCNC(=O)[C@@H]1CCNC(=O)/C=C/C(=O)N2CCC[C@](Cc3ccccc3)(C2)C(=O)N[C@@H](Cc2ccc(-c3ccc(C#CC(=O)O)cc3)cc2)C(=O)NCc2ccccc2CC(=O)N1 [Compound B25]
- IC50 ([1]; CypA column within the mutant section (comparator for CypA E81S/K82R), read-out: Mutant Cyclophilin Prolyl Isomerase Inhibition IC50 Values, CypA): 37 nM
- CypA prolyl-isomerase assay raw dose-response value ([1]; Dose 0.00457247 µM): 0.1146 and 0.097 and 0.1434
- CypA prolyl-isomerase assay raw dose-response value ([1]; Dose 0.0137174 µM): 0.07936 and 0.08714 and 0.118
- CypA prolyl-isomerase assay raw dose-response value ([1]; Dose 0.0411523 µM): 0.05569 and 0.06344 and 0.07261
- CypA prolyl-isomerase assay raw dose-response value ([1]; Dose 0.123457 µM): 0.03132 and 0.03338 and 0.03777
- CypA prolyl-isomerase assay raw dose-response value ([1]; Dose 0.37037 µM): 0.02003 and 0.0199 and 0.02096
- CypA prolyl-isomerase assay raw dose-response value ([1]; Dose 1.11111 µM): 0.015 and 0.01431 and 0.01411
- CypA prolyl-isomerase assay raw dose-response value ([1]; Dose 3.33333 µM): 0.01402 and 0.01221 and 0.01255
- CypA prolyl-isomerase assay raw dose-response value ([1]; Dose 10 µM): 0.01563 and 0.01147 and 0.01176
- IC50 ([1]; prolyl-isomerase inhibition, 5 nM cyclophilin, read-out: IC50 CypA): 37 ± 7 nM
- IC50 ([1]; wild-type CypA, read-out: Wild-Type Cyclophilin Prolyl Isomerase Inhibition IC50 Values, CypA): 37 nM
- CypC prolyl-isomerase assay raw dose-response value ([2]; Dose 0.0228624 µM): 0.03634 and 0.03032 and 0.04283
- CypC prolyl-isomerase assay raw dose-response value ([2]; Dose 0.0685871 µM): 0.03426 and 0.03095 and 0.03961
- CypC prolyl-isomerase assay raw dose-response value ([2]; Dose 0.205761 µM): 0.03174 and 0.03534
- CypC prolyl-isomerase assay raw dose-response value ([2]; Dose 0.617284 µM): 0.02955 and 0.03116 and 0.0299
- CypC prolyl-isomerase assay raw dose-response value ([2]; Dose 1.85185 µM): 0.02445 and 0.02477 and 0.02432
- CypC prolyl-isomerase assay raw dose-response value ([2]; Dose 5.55556 µM): 0.0192 and 0.01832 and 0.02111
- CypC prolyl-isomerase assay raw dose-response value ([2]; Dose 16.6667 µM): 0.016 and 0.01339 and 0.01312
- CypC prolyl-isomerase assay raw dose-response value ([2]; Dose 50 µM): 0.01835 and 0.01198 and 0.01251
- IC50 ([2]; wild-type CypC, read-out: Wild-Type Cyclophilin Prolyl Isomerase Inhibition IC50 Values, CypC): 1800 nM
- CypE prolyl-isomerase assay raw dose-response value ([3]; Dose 0.000457247 µM): 0.09478 and 0.08516 and 0.1307
- CypE prolyl-isomerase assay raw dose-response value ([3]; Dose 0.00137174 µM): 0.1073 and 0.09145 and 0.116
- CypE prolyl-isomerase assay raw dose-response value ([3]; Dose 0.00411523 µM): 0.07586 and 0.07841
- CypE prolyl-isomerase assay raw dose-response value ([3]; Dose 0.0123457 µM): 0.04723 and 0.04807 and 0.05181
- CypE prolyl-isomerase assay raw dose-response value ([3]; Dose 0.037037 µM): 0.02767 and 0.0265 and 0.02701
- CypE prolyl-isomerase assay raw dose-response value ([3]; Dose 0.111111 µM): 0.01749 and 0.01613 and 0.01666
- CypE prolyl-isomerase assay raw dose-response value ([3]; Dose 0.333333 µM): 0.01375 and 0.01292 and 0.01229
- CypE prolyl-isomerase assay raw dose-response value ([3]; Dose 1 µM): 0.01434 and 0.0116 and 0.01112
- IC50 ([3]; wild-type CypE, read-out: Wild-Type Cyclophilin Prolyl Isomerase Inhibition IC50 Values, CypE): 9 nM
- CypG prolyl-isomerase assay raw dose-response value ([4]; Dose 0.0228624 µM): 0.06249 and 0.05548 and 0.0638
- CypG prolyl-isomerase assay raw dose-response value ([4]; Dose 0.0685871 µM): 0.05565 and 0.04551* and 0.05901
- CypG prolyl-isomerase assay raw dose-response value ([4]; Dose 0.205761 µM): 0.04568 and 0.0619
- CypG prolyl-isomerase assay raw dose-response value ([4]; Dose 0.617284 µM): 0.03977 and 0.04815 and 0.06466
- CypG prolyl-isomerase assay raw dose-response value ([4]; Dose 1.85185 µM): 0.05698 and 0.05304 and 0.05804
- CypG prolyl-isomerase assay raw dose-response value ([4]; Dose 5.55556 µM): 0.0448 and 0.05687 and 0.05139
- CypG prolyl-isomerase assay raw dose-response value ([4]; Dose 16.6667 µM): 0.04193 and 0.04196 and 0.0448
- CypG prolyl-isomerase assay raw dose-response value ([4]; Dose 50 µM): 0.03044 and 0.02213 and 0.02754
- IC50 ([4]; prolyl-isomerase inhibition, 5 nM cyclophilin, read-out: IC50 CypG): ~25000 nM
- IC50 ([4]; wild-type CypG, read-out: Wild-Type Cyclophilin Prolyl Isomerase Inhibition IC50 Values, CypG): 25000 nM
- CypH prolyl-isomerase assay raw dose-response value ([5]; Dose 0.0228624 µM): 0.04387 and 0.03667 and 0.04369
- CypH prolyl-isomerase assay raw dose-response value ([5]; Dose 0.0685871 µM): 0.04493 and 0.03523 and 0.04571
- CypH prolyl-isomerase assay raw dose-response value ([5]; Dose 0.205761 µM): 0.04732 and 0.03749
- CypH prolyl-isomerase assay raw dose-response value ([5]; Dose 0.617284 µM): 0.04296 and 0.03867 and 0.04263
- CypH prolyl-isomerase assay raw dose-response value ([5]; Dose 1.85185 µM): 0.0451 and 0.03462 and 0.04053
- CypH prolyl-isomerase assay raw dose-response value ([5]; Dose 5.55556 µM): 0.04418 and 0.03887 and 0.03972
- CypH prolyl-isomerase assay raw dose-response value ([5]; Dose 16.6667 µM): 0.03817 and 0.03665 and 0.03617
- CypH prolyl-isomerase assay raw dose-response value ([5]; Dose 50 µM): 0.02975 and 0.02514 and 0.02678
- IC50 ([5]; prolyl-isomerase inhibition, 5 nM cyclophilin, read-out: IC50 CypH): ~50000 nM
- IC50 ([5]; wild-type CypH, read-out: Wild-Type Cyclophilin Prolyl Isomerase Inhibition IC50 Values, CypH): 50000 nM
- IC50 ([6]; CypB (comparator for CypB E121S), read-out: Mutant Cyclophilin Prolyl Isomerase Inhibition IC50 Values, CypB): 11 nM
- CypB prolyl-isomerase assay raw dose-response value ([6]; Dose 0.000457247 µM): 0.06463 and 0.04091 and 0.06594
- CypB prolyl-isomerase assay raw dose-response value ([6]; Dose 0.00137174 µM): 0.06615 and 0.04875 and 0.05304
- CypB prolyl-isomerase assay raw dose-response value ([6]; Dose 0.00411523 µM): 0.04683 and 0.04984
- CypB prolyl-isomerase assay raw dose-response value ([6]; Dose 0.0123457 µM): 0.03647 and 0.03228 and 0.03371
- CypB prolyl-isomerase assay raw dose-response value ([6]; Dose 0.037037 µM): 0.02322 and 0.02268 and 0.02146
- CypB prolyl-isomerase assay raw dose-response value ([6]; Dose 0.111111 µM): 0.01709 and 0.01633 and 0.0158
- CypB prolyl-isomerase assay raw dose-response value ([6]; Dose 0.333333 µM): 0.01481 and 0.01358 and 0.01262
- CypB prolyl-isomerase assay raw dose-response value ([6]; Dose 1 µM): 0.01394 and 0.01269 and 0.01205
- IC50 ([6]; prolyl-isomerase inhibition, 5 nM cyclophilin, read-out: IC50 CypB): 11 ± 3 nM
- IC50 ([6]; wild-type CypB, read-out: Wild-Type Cyclophilin Prolyl Isomerase Inhibition IC50 Values, CypB): 11 nM
- Cyp40 prolyl-isomerase assay raw dose-response value ([7]; Dose 0.00457247 µM): 0.06429 and 0.05599 and 0.07223
- Cyp40 prolyl-isomerase assay raw dose-response value ([7]; Dose 0.0137174 µM): 0.05813 and 0.05507 and 0.05318
- Cyp40 prolyl-isomerase assay raw dose-response value ([7]; Dose 0.0411523 µM): 0.04821 and 0.05825 and 0.0731
- Cyp40 prolyl-isomerase assay raw dose-response value ([7]; Dose 0.123457 µM): 0.04592 and 0.05196 and 0.05288
- Cyp40 prolyl-isomerase assay raw dose-response value ([7]; Dose 0.37037 µM): 0.03591 and 0.03468 and 0.03748
- Cyp40 prolyl-isomerase assay raw dose-response value ([7]; Dose 1.11111 µM): 0.02292 and 0.02127 and 0.02239
- Cyp40 prolyl-isomerase assay raw dose-response value ([7]; Dose 3.33333 µM): 0.01681 and 0.01439 and 0.01521
- Cyp40 prolyl-isomerase assay raw dose-response value ([7]; Dose 10 µM): 0.01651 and 0.01201 and 0.01273
- IC50 ([7]; Wild-Type Cyclophilin Prolyl Isomerase Inhibition IC50 Values, Cyp40, wild-type Cyp40): 210 nM
- NKTR prolyl-isomerase assay raw dose-response value ([8]; Dose 0.0228624 µM): 0.03241 and 0.03231 and 0.03444
- NKTR prolyl-isomerase assay raw dose-response value ([8]; Dose 0.0685871 µM): 0.03299 and 0.03067 and 0.03202
- NKTR prolyl-isomerase assay raw dose-response value ([8]; Dose 0.205761 µM): 0.03236 and 0.03203
- NKTR prolyl-isomerase assay raw dose-response value ([8]; Dose 0.617284 µM): 0.03089 and 0.03188 and 0.03316
- NKTR prolyl-isomerase assay raw dose-response value ([8]; Dose 1.85185 µM): 0.03191 and 0.03168 and 0.03161
- NKTR prolyl-isomerase assay raw dose-response value ([8]; Dose 5.55556 µM): 0.03134 and 0.03255 and 0.03129
- NKTR prolyl-isomerase assay raw dose-response value ([8]; Dose 16.6667 µM): 0.03138 and 0.0295 and 0.03008
- NKTR prolyl-isomerase assay raw dose-response value ([8]; Dose 50 µM): 0.02697 and 0.02369 and 0.02457
- IC50 ([8]; wild-type NKTR, read-out: Wild-Type Cyclophilin Prolyl Isomerase Inhibition IC50 Values, NKTR): > 50000 nM

— article PMC9596378, “Discovery and molecular basis of subtype-selective cyclophilin inhibitors” (Nature Chemical Biology, 2022)
